# Experiments:
# [1] = molecular target: T1, PI3Kα (Homo sapiens, UniProt P42336); test: PI3 Kinase HTRF assay, PI3Kα; type: biochemical; settings: 10 μM PIP2, 10 μM ATP; read-out: PI3K α IC50
# T1 construct: purchased Millipore Corporation 14-602-K
# Excerpt: (§1) A PI3 Kinase HTRF® assay kit (cat No. 33-016) purchased from Millipore Corporation was used to screen compounds disclosed herein. This assay used specific, high affinity binding of the GRP1 pleckstrin homology (PH) domain to PIP3, the product of a Class 1A or 1B PI3 Kinase acting on its physiological substrate PIP2. During the detection phase of the assay, a complex was generated between the GST-tagged PH domain and biotinylated short chain PIP3. The biotinylated PIP3 and the GST-tagged PH domain recruited fluorophores (Streptavidin-Allophycocyanin and Europium-labeled anti-GST respectively) to form the fluorescence resonance energy transfer (FRET) architecture, generating a stable time-resolved FRET signal. The FRET complex was disrupted in a competitive manner by non-biotinylated PIP3, a product formed in the PI3 Kinase assay.
# (§2) PI3 Kinase α, β, γ and δ activity was assayed using the PI3 Kinase HTRF® assay kit (catalogue No. 33-016) purchased from Millipore Corporation. Purified recombinant PI3Kα (catalogue No. 14-602-K), PI3Kβ (catalogue No. 14-603-K), PI3Kγ (catalogue No. 14-558-K) and PI3Kδ (catalogue No. 14-604-K) were obtained from Millipore Corporation. Purified recombinant PI3K enzyme was used to catalyze the phosphorylation of phosphatidylinositol 4,5-bisphosphate (PIP2 at 10 μM) to phosphatidylinositol 3,4,5-trisphosphate (PIP3) in the presence of 10 μM ATP. The assay was carried out in 384-well format and detected using a Perkin Elmer En Vision Xcite Multilabel Reader. Emission ratios were converted into percent inhibitions and imported into GraphPad Prism software. The concentration necessary to achieve inhibition of enzyme activity by 50% (IC50) was calculated using concentrations ranging from 20 μM to 0.1 nM (12-point curve). IC50 values were determined using a nonlinear regression model available in GraphPad Prism 5. […]
# [2] = molecular target: T2, PI3Kδ (Homo sapiens, UniProt O00329); test: PI3 Kinase HTRF assay, PI3Kδ; type: biochemical; settings: 10 μM PIP2, 10 μM ATP; read-out: PI3K δ IC50
# T2 construct: purchased Millipore Corporation 14-604-K
# Excerpt: as §1, §2
# [3] = molecular target: T3, PI3Kγ (Homo sapiens, UniProt P48736); test: PI3 Kinase HTRF assay, PI3Kγ; type: biochemical; settings: 10 μM PIP2, 10 μM ATP; read-out: PI3K γ IC50
# T3 construct: purchased Millipore Corporation 14-558-K
# Excerpt: as §1, §2
# [4] = test system: Balb/c splenic B cells; test: B cell activation and proliferation assay (Alamar Blue); type: cell-based; settings: Mus musculus, read-out: B cell prolif. IC50
# Protocol: The ability of one or more subject compounds to inhibit B cell activation and proliferation is determined according to standard procedures known in the art. For example, an in vitro cellular proliferation assay is established that measures the metabolic activity of live cells. The assay is performed in a 96 well microtiter plate using Alamar Blue reduction. Balb/c splenic B cells are purified over a Ficoll-Paque™ PLUS gradient followed by magnetic cell separation using a MACS B cell Isolation Kit (Miletenyi). Cells are plated in 90 ul at 50,000 cells/well in B Cell Media (RPMI+10% FBS+Penn/Strep+50 uM bME+5 mM HEPES). A compound disclosed herein is diluted in B Cell Media and added in a 10 μl volume. Plates are incubated for 30 min at 37 C and 5% CO2 (0.2% DMSO final concentration). A 50 μl B cell stimulation cocktail is then added containing either 10 ug/ml LPS or 5 ug/ml F(ab′)2 Donkey anti-mouse IgM plus 2 ng/ml recombinant mouse IL4 in B Cell Media. Plates are incubated for 72 hours at 37° C. and 5% CO2. A volume of 15 μl of Alamar Blue reagent is added to each well and plates are incubated for 5 hours at 37 C and 5% CO2. Alamar Blue fluoresce is read at 560Ex/590Em, and IC50 or EC50 values are calculated using GraphPad Prism 5.
# [5] = molecular target: T4, PI3Kβ (Homo sapiens, UniProt P42338); test: PI3 Kinase HTRF assay, PI3Kβ; type: biochemical; settings: 10 μM PIP2, 10 μM ATP; read-out: PI3K β IC50
# T4 construct: purchased Millipore Corporation 14-603-K
# Excerpt: as §1, §2
# T4 sequence (P42338 whole entry): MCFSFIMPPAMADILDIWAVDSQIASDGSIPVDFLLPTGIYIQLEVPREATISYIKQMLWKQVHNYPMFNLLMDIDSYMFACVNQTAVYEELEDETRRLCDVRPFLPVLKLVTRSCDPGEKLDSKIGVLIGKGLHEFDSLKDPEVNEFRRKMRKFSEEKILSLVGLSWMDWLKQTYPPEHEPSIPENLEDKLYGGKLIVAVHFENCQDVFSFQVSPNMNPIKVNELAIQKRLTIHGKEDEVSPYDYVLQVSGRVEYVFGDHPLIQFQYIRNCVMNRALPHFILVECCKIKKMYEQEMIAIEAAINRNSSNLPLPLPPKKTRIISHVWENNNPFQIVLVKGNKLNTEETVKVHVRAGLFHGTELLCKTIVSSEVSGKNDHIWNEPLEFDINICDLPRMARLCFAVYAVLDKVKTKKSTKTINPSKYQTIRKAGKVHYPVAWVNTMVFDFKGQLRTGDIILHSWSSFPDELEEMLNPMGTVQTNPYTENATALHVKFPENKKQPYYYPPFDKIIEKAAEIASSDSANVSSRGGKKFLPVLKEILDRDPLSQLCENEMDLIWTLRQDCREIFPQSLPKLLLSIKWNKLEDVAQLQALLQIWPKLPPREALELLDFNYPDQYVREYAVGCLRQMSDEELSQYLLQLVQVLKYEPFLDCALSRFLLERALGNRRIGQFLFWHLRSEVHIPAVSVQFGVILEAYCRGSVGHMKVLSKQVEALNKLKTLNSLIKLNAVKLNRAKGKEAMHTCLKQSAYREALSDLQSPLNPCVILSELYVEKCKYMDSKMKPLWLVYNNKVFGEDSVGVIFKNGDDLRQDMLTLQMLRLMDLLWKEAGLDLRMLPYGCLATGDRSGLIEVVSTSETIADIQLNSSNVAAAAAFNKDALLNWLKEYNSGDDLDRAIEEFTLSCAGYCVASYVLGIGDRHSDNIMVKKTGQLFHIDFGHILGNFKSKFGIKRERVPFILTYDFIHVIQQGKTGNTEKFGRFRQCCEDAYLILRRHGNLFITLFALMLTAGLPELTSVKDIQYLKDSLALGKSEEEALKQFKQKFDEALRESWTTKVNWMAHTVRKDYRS
# T4 sequence (P27986 whole entry partner): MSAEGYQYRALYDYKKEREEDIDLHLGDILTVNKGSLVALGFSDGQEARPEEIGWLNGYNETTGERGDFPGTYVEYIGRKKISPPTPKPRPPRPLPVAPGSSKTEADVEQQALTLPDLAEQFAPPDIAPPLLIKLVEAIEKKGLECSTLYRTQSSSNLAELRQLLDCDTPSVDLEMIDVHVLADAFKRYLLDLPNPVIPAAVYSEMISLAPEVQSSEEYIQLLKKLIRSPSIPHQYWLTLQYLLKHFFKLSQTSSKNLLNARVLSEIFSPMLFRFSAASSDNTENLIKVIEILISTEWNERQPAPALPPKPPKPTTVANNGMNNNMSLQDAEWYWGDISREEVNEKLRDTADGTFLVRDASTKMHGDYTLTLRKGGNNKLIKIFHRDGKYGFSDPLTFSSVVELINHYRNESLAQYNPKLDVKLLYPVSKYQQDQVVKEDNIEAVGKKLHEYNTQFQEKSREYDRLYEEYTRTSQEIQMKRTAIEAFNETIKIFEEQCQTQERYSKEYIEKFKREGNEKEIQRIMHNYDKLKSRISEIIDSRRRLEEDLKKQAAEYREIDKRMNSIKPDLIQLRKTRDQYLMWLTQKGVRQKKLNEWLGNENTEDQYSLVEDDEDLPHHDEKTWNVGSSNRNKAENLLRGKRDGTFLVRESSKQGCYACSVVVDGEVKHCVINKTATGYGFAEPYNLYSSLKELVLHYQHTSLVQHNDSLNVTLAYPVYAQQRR
# T1 sequence (P42336 whole entry): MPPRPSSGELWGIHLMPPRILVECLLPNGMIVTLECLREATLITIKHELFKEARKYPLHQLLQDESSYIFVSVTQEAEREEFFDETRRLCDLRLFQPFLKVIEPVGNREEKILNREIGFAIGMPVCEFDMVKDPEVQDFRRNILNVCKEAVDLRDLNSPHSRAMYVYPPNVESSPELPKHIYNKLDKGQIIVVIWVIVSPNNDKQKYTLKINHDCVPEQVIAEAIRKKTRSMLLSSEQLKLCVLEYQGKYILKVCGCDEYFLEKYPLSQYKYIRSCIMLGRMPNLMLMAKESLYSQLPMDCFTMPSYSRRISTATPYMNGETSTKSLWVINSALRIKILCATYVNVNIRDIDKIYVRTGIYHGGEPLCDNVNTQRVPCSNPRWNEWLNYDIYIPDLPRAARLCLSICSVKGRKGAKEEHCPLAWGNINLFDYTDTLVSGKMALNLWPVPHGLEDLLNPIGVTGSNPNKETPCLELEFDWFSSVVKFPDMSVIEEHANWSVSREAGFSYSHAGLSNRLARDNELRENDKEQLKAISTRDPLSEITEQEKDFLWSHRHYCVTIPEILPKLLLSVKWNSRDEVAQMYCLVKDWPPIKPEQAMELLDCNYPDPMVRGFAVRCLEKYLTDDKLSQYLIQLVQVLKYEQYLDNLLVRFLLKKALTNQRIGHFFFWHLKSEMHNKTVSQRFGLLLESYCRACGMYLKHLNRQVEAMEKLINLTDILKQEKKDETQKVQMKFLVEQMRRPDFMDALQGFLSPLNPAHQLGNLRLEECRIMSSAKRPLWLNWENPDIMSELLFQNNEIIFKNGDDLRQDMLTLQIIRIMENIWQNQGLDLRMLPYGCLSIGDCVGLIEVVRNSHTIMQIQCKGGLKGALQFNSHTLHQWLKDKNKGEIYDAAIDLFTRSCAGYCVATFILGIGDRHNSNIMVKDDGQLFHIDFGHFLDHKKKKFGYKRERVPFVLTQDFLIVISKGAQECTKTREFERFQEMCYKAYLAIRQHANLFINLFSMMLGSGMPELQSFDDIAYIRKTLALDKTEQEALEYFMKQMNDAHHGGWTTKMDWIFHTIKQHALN
# T1 sequence (P27986 whole entry partner): as the sequence (P27986 whole entry partner) above
# T3 sequence (P48736 whole entry): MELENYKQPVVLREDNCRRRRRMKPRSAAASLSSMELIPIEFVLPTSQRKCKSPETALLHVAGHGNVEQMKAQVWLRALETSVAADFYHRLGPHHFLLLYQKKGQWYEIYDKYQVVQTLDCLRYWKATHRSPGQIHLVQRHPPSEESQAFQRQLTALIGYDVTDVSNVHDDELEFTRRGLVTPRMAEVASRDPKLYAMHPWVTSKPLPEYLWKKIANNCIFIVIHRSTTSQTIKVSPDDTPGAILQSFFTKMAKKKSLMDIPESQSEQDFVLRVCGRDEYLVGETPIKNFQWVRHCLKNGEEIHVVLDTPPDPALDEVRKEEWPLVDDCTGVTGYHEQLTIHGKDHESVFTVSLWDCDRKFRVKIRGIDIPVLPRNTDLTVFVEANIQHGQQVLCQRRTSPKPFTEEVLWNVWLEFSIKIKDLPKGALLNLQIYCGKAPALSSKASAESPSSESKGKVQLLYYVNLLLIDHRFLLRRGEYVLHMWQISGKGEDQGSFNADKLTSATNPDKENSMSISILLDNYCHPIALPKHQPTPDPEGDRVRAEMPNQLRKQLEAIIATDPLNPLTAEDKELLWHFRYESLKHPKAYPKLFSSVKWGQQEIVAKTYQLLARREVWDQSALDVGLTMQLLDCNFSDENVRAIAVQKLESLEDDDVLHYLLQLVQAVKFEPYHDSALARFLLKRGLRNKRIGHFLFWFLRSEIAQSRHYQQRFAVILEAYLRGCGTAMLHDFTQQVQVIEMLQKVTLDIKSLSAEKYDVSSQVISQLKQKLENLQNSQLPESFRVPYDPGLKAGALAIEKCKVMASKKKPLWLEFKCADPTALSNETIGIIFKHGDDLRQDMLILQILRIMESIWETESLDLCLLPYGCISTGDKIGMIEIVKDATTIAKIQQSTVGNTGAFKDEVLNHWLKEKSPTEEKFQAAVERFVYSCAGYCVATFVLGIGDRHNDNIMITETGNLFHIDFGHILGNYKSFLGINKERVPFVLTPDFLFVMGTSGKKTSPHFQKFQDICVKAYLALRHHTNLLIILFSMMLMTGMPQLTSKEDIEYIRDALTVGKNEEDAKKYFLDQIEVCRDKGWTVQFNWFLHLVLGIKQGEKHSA
# T2 sequence (O00329 whole entry): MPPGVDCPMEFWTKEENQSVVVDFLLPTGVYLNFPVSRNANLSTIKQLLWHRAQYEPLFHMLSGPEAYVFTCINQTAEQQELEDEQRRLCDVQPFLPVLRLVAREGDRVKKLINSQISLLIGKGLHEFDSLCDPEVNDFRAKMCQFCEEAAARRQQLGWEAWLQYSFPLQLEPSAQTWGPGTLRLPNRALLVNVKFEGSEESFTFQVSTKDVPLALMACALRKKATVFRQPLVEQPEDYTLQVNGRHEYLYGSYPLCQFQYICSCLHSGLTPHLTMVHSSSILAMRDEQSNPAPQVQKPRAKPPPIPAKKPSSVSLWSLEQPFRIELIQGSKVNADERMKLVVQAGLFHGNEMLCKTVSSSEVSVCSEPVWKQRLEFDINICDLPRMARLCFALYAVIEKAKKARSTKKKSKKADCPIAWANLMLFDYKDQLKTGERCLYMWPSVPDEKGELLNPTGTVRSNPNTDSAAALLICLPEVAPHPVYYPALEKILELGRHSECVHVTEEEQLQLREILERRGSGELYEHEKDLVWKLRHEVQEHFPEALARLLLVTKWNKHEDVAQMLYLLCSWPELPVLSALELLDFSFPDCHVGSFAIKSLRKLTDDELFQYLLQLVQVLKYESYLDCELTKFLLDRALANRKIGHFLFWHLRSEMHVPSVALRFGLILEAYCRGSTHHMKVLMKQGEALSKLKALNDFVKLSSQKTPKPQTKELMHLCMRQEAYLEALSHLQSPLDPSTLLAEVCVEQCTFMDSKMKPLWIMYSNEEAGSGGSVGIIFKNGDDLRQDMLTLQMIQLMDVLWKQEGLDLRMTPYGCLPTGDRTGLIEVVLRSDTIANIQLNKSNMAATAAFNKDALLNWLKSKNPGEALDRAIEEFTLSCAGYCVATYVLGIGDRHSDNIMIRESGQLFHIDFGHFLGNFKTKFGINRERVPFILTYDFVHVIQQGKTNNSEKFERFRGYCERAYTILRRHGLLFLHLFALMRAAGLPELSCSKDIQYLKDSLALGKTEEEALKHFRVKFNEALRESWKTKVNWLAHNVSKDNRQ
# T2 sequence (P27986 whole entry partner): as the sequence (P27986 whole entry partner) above
SMILES,IC50 [1] [µM],IC50 [2] [µM],IC50 [3] [µM],IC50 [5] [µM],IC50 [4] [µM]
C[C@H](Nc1ncnc2[nH]cnc12)c1cc2cccc(Cl)c2c(CCN2CCOCC2)n1 [Compound 4],< 10,< 0.1,< 10,< 10,< 0.1
C[C@H](Nc1ncnc2[nH]cnc12)c1cc2cccc(Cl)c2c(CN2CCC(F)(F)C2)n1 [Compound 8],< 10,< 1,< 1,< 10,< 1
C[C@H](Nc1ncnc2[nH]cnc12)c1cc2cccc(Cl)c2c(C(=O)N2C3CCC2COC3)n1 [Compound 16],> 10,< 0.1,< 10,< 10,< 0.1
C[C@H](Nc1ncnc2[nH]cnc12)c1cc2cccc(Cl)c2c(C(=O)Nc2ccccc2)n1 [Compound 25],> 10,< 0.1,< 10,< 10,< 1
C[C@H](Nc1ncnc2[nH]cnc12)c1cc2cccc(Cl)c2c(C(=O)NCc2ccccc2)n1 [Compound 26],> 10,< 0.1,< 1,< 10,< 0.1
C[C@H](Nc1ncnc2[nH]cnc12)c1cc2cccc(Cl)c2c(CC(=O)N2CCN(C)CC2)n1 [Compound 37],> 10,< 1,> 10,> 10,< 1
"CC(=O)NCCOc1nc([C@H](C)Nc2ncnc3[nH]cnc23)cc2cccc(Cl)c12 [Compound 40, (S)—N-(2-(3-(1-(9H-purin-6-ylamino)ethyl)-8-chloroisoquinolin-1-yloxy)ethyl)acetamide]",< 10,< 0.1,< 1,< 10,< 0.1
C[C@H](Nc1ncnc2[nH]cnc12)c1cc2cccc(Cl)c2c(OCC(=O)N2CCN(C)CC2)n1 [Compound 42],> 10,< 0.1,> 10,< 10,< 1
"CC(C)N1CCC(Oc2nc([C@H](C)Nc3ncnc4[nH]cnc34)cc3cccc(Cl)c23)CC1 [Compound 47, (S)—N-(1-(8-chloro-1-(1-isopropylpiperidin-4-yloxy)isoquinolin-3-yl)ethyl)-9H-purin-6-amine]",< 10,< 0.1,> 10,< 10,< 0.1
C[C@H](Nc1ncnc2[nH]cnc12)c1cc2c(F)cccc2c(CCN2CCOCC2)n1 [Compound 53],> 10,< 0.1,> 10,> 10,< 0.1
COCCN(C)C(=O)c1nc([C@H](C)Nc2ncnc3cccnc23)cc2cccc(Cl)c12 [Compound 244],> 10,< 1,< 10,> 10,
C[C@H](Nc1ncnc2cccnc12)c1cc2cccc(Cl)c2c(C(=O)N2CCOC[C@H]2C)n1 [Compound 245],> 10,< 1,< 1,> 10,
C[C@H](Nc1ncnc2scnc12)c1cc2cccc(Cl)c2c(C(=O)N2CCOC[C@H]2C)n1 [Compound 246],< 10,< 1,< 10,< 10,
COCCN(C)C(=O)c1nc([C@H](C)Nc2ncnc3scnc23)cc2cccc(Cl)c12 [Compound 249],< 10,< 0.1,< 1,< 10,

# More lines, main results first:
IC50 [1] [µM],IC50 [2] [µM],IC50 [3] [µM],IC50 [5] [µM],SMILES,IC50 [4] [µM]
> 10,< 0.1,< 10,> 10,C[C@H](Nc1ncnc2[nH]cnc12)c1cc2cccc(Cl)c2c(CN2CCOCC2)n1 [Compound 7],< 0.1
> 10,< 0.1,< 0.1,< 10,C[C@H](Nc1ncnc2[nH]cnc12)c1cc2cccc(Cl)c2c(C(=O)N2CCOCC2)n1 [Compound 13],< 0.1
> 10,< 0.1,< 10,> 10,C[C@H](Nc1ncnc2[nH]cnc12)c1cc2cccc(Cl)c2c(C(=O)N2CCCC2)n1 [Compound 14],< 0.1
< 10,< 0.1,< 10,> 10,C[C@H](Nc1ncnc2[nH]cnc12)c1cc2cccc(Cl)c2c(C(=O)N2CCN(C)CC2)n1 [Compound 15],< 0.1
> 10,< 0.1,> 10,< 10,C[C@@H]1CN(C(=O)c2nc([C@H](C)Nc3ncnc4[nH]cnc34)cc3cccc(Cl)c23)CCN1 [Compound 17],< 1
< 10,< 0.1,< 10,< 1,C[C@H](Nc1ncnc2[nH]cnc12)c1cc2cccc(Cl)c2c(C(=O)N2CCN[C@@H](C)C2)n1 [Compound 18],< 1
> 10,< 0.1,< 1,< 10,C[C@H](Nc1ncnc2[nH]cnc12)c1cc2cccc(Cl)c2c(C(=O)N2CC3CCC(C2)O3)n1 [Compound 19],< 0.1
> 10,< 0.1,< 1,> 10,C[C@H](Nc1ncnc2[nH]cnc12)c1cc2cccc(Cl)c2c(C(=O)N2CCC(F)(F)C2)n1 [Compound 20],< 0.1
> 10,< 0.1,< 1,> 10,C[C@H](Nc1ncnc2[nH]cnc12)c1cc2cccc(Cl)c2c(C(=O)N2CC(F)(F)C2)n1 [Compound 21],< 0.1
> 10,< 0.1,< 10,> 10,C[C@H](Nc1ncnc2[nH]cnc12)c1cc2cccc(Cl)c2c(C(=O)NC2CCC2)n1 [Compound 23],< 0.1
> 10,< 1,< 10,< 10,C[C@H](Nc1ncnc2[nH]cnc12)c1cc2cccc(Cl)c2c(C(=O)N2CCC2)n1 [Compound 24],< 1
> 10,< 0.1,< 10,< 10,C[C@H](Nc1ncnc2[nH]cnc12)c1cc2cccc(Cl)c2c(CC(=O)N2CCCC2)n1 [Compound 36],< 1
< 10,< 0.1,< 1,> 10,C[C@H](Nc1ncnc2[nH]cnc12)c1cc2cccc(Cl)c2c(OCC(=O)N2CCOCC2)n1 [Compound 43],< 0.1
< 10,< 0.1,< 1,< 10,CNC(=O)COc1nc([C@H](C)Nc2ncnc3[nH]cnc23)cc2cccc(Cl)c12 [Compound 44],< 1
> 10,< 0.1,< 10,> 10,C[C@H](Nc1ncnc2[nH]cnc12)c1cc2cccc(Cl)c2c(OCC(=O)N2CCCC2)n1 [Compound 45],< 1
> 10,< 0.1,> 10,< 10,"C[C@H](Nc1ncnc2[nH]cnc12)c1cc2cccc(Cl)c2c(N2CCN(C)CC2)n1 [Compound 46, (S)—N-(1-(8-chloro-1-(4-methylpiperazin-1-yl)isoquinolin-3-yl)ethyl)-9H-purin-6-amine]",< 0.1
